Article PMC12104086, “Identification of a multiple DAMP scavenger mimicking the DAMP-binding site of TLR4 to ameliorate lethal sepsis” (Frontiers in Immunology, 2025)

How the values were obtained:
[1] = test system: C57BL/6 mice, cecal ligation and puncture (CLP); experiment: CLP lethal sepsis model, 20 h: plasma DAMPs, serum cytokines and organ injury markers; type: in vivo, mouse; details: 80 nmol/kg i.p. once at abdominal closure, 20 h after CLP; n = 7–9; scrambled: vs sham; OP18: vs scrambled peptide; p < 0.05
Method: Polymicrobial sepsis was induced in mice by cecal ligation and puncture (CLP) ([7], [23]). Mice were anesthetized with isoflurane, and a midline abdominal incision was performed. The cecum was ligated with a 4–0 silk suture 1 cm proximal from its distal extremity and puncture using a 22-G needle was made twice (through and through) for a 20-h study and once for a survival study. A control (scrambled peptide) or OP18, both with 80 nmol/kg body weight (BW), was injected intraperitoneally (i.p.) before the closure. Sham animals were subjected to a laparotomy without CLP. Following the surgery, 1 mL of saline was injected subcutaneously to avoid surgery-induced dehydration, and 0.05 mg/kg buprenorphine was injected subcutaneously as an analgesic; 20 h after the surgery, the blood and lungs were collected. In the 20-h model, antibiotics were not administered, whereas in the survival study, 0.5 mg/kg BW of Imipenem was injected subcutaneously.
Blood was collected, centrifuged at 1,000 × g for 10 min, and plasma or serum was separated. Plasma levels of eCIRP, HMGB1, and histone H3 were analyzed by ELISA kits according to the manufacturer’s instruction (eCIRP from American Research Products, Inc., Waltham, MA, USA, HMGB1 from Invitrogen, Thermo Fisher Scientific, and histone H3 from LS Bio, Shirley, MA, USA). Serum levels of IL-6 and TNF-α were analyzed by ELISA kits (IL-6 and TNF-α both from BD Biosciences, Franklin Lakes, NJ, USA) according to the manufacturer’s instruction. Serum levels of aspartate aminotransferase (AST), lactate dehydrogenase (LDH), blood urea nitrogen (BUN), and creatinine (Cre) were measured by specific colorimetric enzymatic assays (Pointe Scientific, Canton, MI). Absorbance was measured on a Synergy Neo2 (Agilent Technologies) according to the manufacturer’s instructions.
Figure 4 OP18 alleviates systemic inflammation and tissue injury in sepsis. Intraperitoneal injection of 80 nmol/kg scrambled peptide or 80 nmol/kg OP18 was performed on CLP mice before skin closure. Blood and lungs were collected 20 h after CLP. (A–C) Plasma levels of (A) eCIRP, (B) HMGB1, and (C) histone H3. (D–I) Serum levels of (D) IL-6, (E) TNF-α, (F) AST, (G) LDH, (H) BUN, and (I) Cre. Data are expressed as mean ± SEM (n = 7–9 samples/group) and were compared using one-way ANOVA followed by Tukey’s multiple comparison test. ^* p < 0.05 versus sham; ^# p < 0.05 versus scrambled peptide. Experiments were performed three times, and all data were used for analysis.

[2] = test system: RAW264.7 cells; experiment: MTS cytotoxicity assay; type: cell-based, mouse; details: 20 h, n=3-4, versus PBS
Method: (§1) Supplemental Figure 6: Toxicity Assay of OP18
(§2) Note: (A) RAW264.7 cells were treated with OP18 for 20 h and MTS assay was performed using a CellTiter 96® AQueous Non-Radioactive Cell Proliferation Assay kit (Promega, Madison, Wisconsin) according to the manufacturer’s instructions. (B) Mouse peritoneal macrophages were treated with OP18 for 20 h and CyQUANT™ LDH Cytotoxicity Assay (Thermo Fisher Scientific, Waltham, MA) was performed according to the manufacturer’s instruction s. Data are expressed as mean ± SEM (n=3-4 samples/group) and compared by one -way ANOVA and a Tukey’s multiple comparison test. ns: not significant, *p < 0.05 versus PBS (C, D) Sham mice were treated with OP18 for 20h and blood were collected. (C) IL-6 and (D) TNFα were […]
(§3) Data are expressed as mean ± SEM and compared by unpaired two -tailed Student’s t-test. not significant (ns) vs sham.
(§4) (1 picture or pasted object on this page, not shown here)

[3] = test system: mouse peritoneal macrophages; experiment: LDH cytotoxicity assay; type: cell-based; details: 20 h, n=3-4, versus PBS
Method: as §1, §2, §3, §4

[4] = test system: C57BL/6 mice (sham); experiment: Cytokine production in sham mice treated with OP18; type: in vivo, mouse; details: OP18-treated sham versus sham, 20 h, blood, ELISA
Method: as §1, §2, §3, §4

Molecule | plasma HMGB1 level [1] | plasma eCIRP level [1] | plasma histone H3 level [1] | serum AST [1] | serum BUN [1] | serum Cre [1] | serum IL-6 [1] | serum LDH [1] | serum TNF-α [1] | cytotoxicity on macrophages (MTS) [2] | cytotoxicity on macrophages (LDH) [3] | IL-6 in sham mice [4] | TNFα in sham mice [4]
NRKINMGSFTQCSNNLGD [scrambled peptide, scrambled control peptide for OP18 ([…])] | significantly elevated | significantly elevated | significantly elevated | significantly elevated | significantly elevated | significantly elevated | significantly elevated | significantly elevated | significantly elevated |  |  |  | 
CC[C@H](C)[C@H](NC(=O)[C@H](CC(N)=O)NC(=O)[C@H](CO)NC(=O)[C@H](CO)NC(=O)[C@H](CC(N)=O)NC(=O)[C@H](Cc1ccccc1)NC(=O)[C@H](CC(N)=O)NC(=O)CN)C(=O)N[C@@H](CCSC)C(=O)N[C@@H](CCCCN)C(=O)N[C@H](C(=O)N[C@@H](CS)C(=O)N[C@@H](CC(C)C)C(=O)N[C@@H](CCC(N)=O)C(=O)N[C@@H](CC(N)=O)C(=O)N[C@@H](CCCNC(=N)N)C(=O)NCC(=O)N[C@@H](CC(=O)O)C(=O)O)[C@@H](C)O [OP18] |  |  |  |  |  |  |  |  |  | did not observe any cytotoxicity | did not observe any cytotoxicity | No significant difference | No significant difference
